Measured values from US20250228761A1, “COMPOSITION COMPRISING A SURFACE-REACTED CALCIUM CARBONATE AND A TANNIN” (Omya International AG, priority 2021, published 2025).

Assay: In vitro measurement of antiperspirant effect (SOD4 device, Smart-Pore microchannels)
Details: 80% hygrometry, 2 mg/cm^2 dose
Experimental: In vitro measurement of antiperspirant activity was measured with an SOD4 device from Microfactory, France. The SOD4 device is an automated biomimetic system that imitates the sweating process. The device comprises (1) Smart-Pore™: a silicone microfluidic chip containing microchannels which mimic skin pores (number of pores per chip: 4; dimensions of the pores: 60 μm×60 μm×2 mm; material: polydimethylsiloxane); (2) a pressure system controlling the flow of sweat in the pores down to nanoliter volumes; (3) a climate chamber regulated in humidity/temperature to reproduce perspiration conditions; (4) an optical system to monitor and record the interaction between the antiperspirant and artificial sweat.
Known antiperspirants block sweat pores thereby reducing sweating of a subject. The blocking is caused by a precipitate or clot in the sweat pore which is formed by interaction of the antiperspirant with components of sweat. The SOD4 device mimics this process and allows for analyzing the interaction of an antiperspirant sample and artificial sweat in the microfluidic channel. The analysis includes, e.g. detection of precipitate/clot formation, measuring precipitate/clot formation time, and measuring pressure (bursting pressure) which is necessary for removing the precipitate/clot from the microchannel. […]

With Aluminium chlorohydrate [Sample 4] the “Burst pressure (mbar)*” value (average of the maximal pressure applied before unclogging of precipitate/clot from the microchannel, after one hour interaction with artificial sweat at 25° C.) was 699 +/− 34 mbar and the “Clot formation time” value (average over all observed clots, artificial sweat, 25° C.) was 2047 s.
